Experimental data taken from patent publication US7524849B2, “5-arylpyrimidines as anticancer agents” (Wyeth Holdings Corporation, priority 2003, dated 2009).
Where two headings read alike, the source gives them in different places. Marks after values point to notes of the source that are not given here.

Tests used:
[1] = test system: S1 cells; experiment: MTS cytotoxicity test with S1 cells; assay type: cell-based, human; settings: mean of 2 experiments
Source text: (§1) Human cancer cell lines, unless otherwise noted, are obtained from the American Type Culture Collection (Rockville, Md.). The following drug-sensitive parental cell lines, and their derived drug-resistant counterparts, are obtained from the originators as listed: (a) S1 (parental line from a subclone of human colon carcinoma line LS174T) and derived S1-M1-3.2 (herein called S1-M1) which expresses the MXR drug transporter protein, are provided by Dr. L. Greenberger, Wyeth Research (Rabindran, S. K., He, H., Singh, M., Brown, E., Collins, K. I., Annable, T., and Greenberger, L. M. Reversal of a novel multidrug resistance mechanism in human colon carcinoma cells by fumitremorgin C. Cancer Res., 58: 5850-5858, 1998); (b) parental HL-60 human promyelocytic leukemia line and derived HL-60/ADR, which expresses the MRP1 drug transporter protein, are provided by Dr. M. Center, University of Kansas (McGrath, T., and Center, M. S. Adriamycin resistance in HL60 cells in the absence of detectable P-glycoprotein. Biochem. Biophys. […] J. Biol. Chem., 261: 7762-7770, 1986) via Dr. L. Greenberger, Wyeth Research.
(§2) The assay, which is sold in kit form by Promega (Madison, Wis.; CellTiter 96 AQueous Non-Radioactive Cell Proliferation Assay), is based on the conversion by viable cells, but not by dead cells, of the tetrazolium salt, MTS (3-(4,5-dimethylthiazol-2-yl)-5-(3-carboxymethoxyphenyl)-2-(4-sulphophenyl)-2H-tetrazolium, inner salt), into a water-soluble colored formazan which is detected by spectrophotometry. Compounds are tested at nine concentrations, in order to determine IC50 values. For the test procedure, cells are harvested by trypsinization, washed, counted and distributed to wells of 96-well flat-bottom microtiter plates at 1000 cells per well in 200 μL of medium. In addition, one row of wells on a separate plate receives cells as above (“time 0” plate). All plates are incubated at 37° in humidified 5% CO2 in air for about 24 hr.
(§3) On day 2, compounds for test are diluted and added to wells. Compounds are dissolved in DMSO at 10 mg/mL. For each compound, nine serial 2-fold dilutions are prepared in DMSO. Ten μL of each dilution in DMSO are transferred to 100 μL of medium, mixed well, and then 5 μL of this dilution are transferred in quadruplicate to wells containing cells. […] Plates are returned to the incubator for three days. At the time of drug addition to the experimental plates, the MTS assay is run on the “time 0” plate. This produces the “time 0 MTS value” which is related to the number of viable cells per well at the time of drug addition.
(§4) After three days of culture with test compounds (day 5 overall), the MTS assay is done on all wells of the experimental plates. The absorbance values of the quadruplicate sample wells are averaged and divided by the average of the “time 0” values. […] The nine values for each compound are plotted against concentration, and the concentration that produces a relative color yield half way between the maximum and minimum is taken as the IC50 value.
S1-M1 cells overexpress the MXR transporter which mediates resistance to some chemotherapeutics (Gottesman, M. M., Fojo, T., and Bates, S. E. Miltidrug resistance in cancer: role of ATP-dependent transporters. Nature Rev. Cancer, 2: 48-58, 2002). The IC50 values of representative examples of this invention, as well as reference compounds, on S1-M1 are compared to values on the sensitive parental S1 line.

[2] = test system: KB cells; experiment: MTS cytotoxicity test with KB cells; assay type: cell-based, human; settings: mean of 2 experiments
Source text: as §1, §2, §3, §4

[3] = test system: HL-60 cells; experiment: MTS cytotoxicity test with HL-60 cells; assay type: cell-based, human; settings: mean of 2 experiments
Source text: as §1, §2, §3, §4
HL-60/ADR cells overexpress the multidrug resistance protein MRP1 which mediates resistance to some chemotherapeutics (Gottesman, M. M., Fojo, T., and Bates, S. E. Multidrug resistance in cancer: role of ATP-dependent transporters. Nature Rev. Cancer, 2: 48-58, 2002). The IC50 values of representative examples of this invention, as well as reference compounds, on HL-60/ADR are compared to values on the sensitive parental HL-60 line.

[4] = test system: MAP-rich tubulin; experiment: Tubulin polymerization test with MAP-rich tubulin; assay type: biochemical, bovine; settings: 0.3 μM compound, mean A340 at 20 min, fold enhancement over control
Experimental: Medium is RPMI-1640 with L-glutamine, supplemented with 10% heat-inactivated fetal calf serum, 100 units/mL penicillin, and 100 μg/mL streptomycin (Gibco, Grand Island, N.Y.). Microtubule-associated protein (MAP)-rich tubulin, containing about 70% tubulin and 30% MAPs (#ML113), and highly purified tubulin (>99% pure, #TL238), both from bovine brain, are obtained from Cytoskeleton, Inc., Denver, Colo. PEM buffer (80 mM piperazine-N,N′-bis[2-ethanesulfonic acid], pH 6.9, 1 mM ethylene glycol-bis(β-aminoethyl ether)-N,N,N′,N′-tetraacetic acid, 1 mM magnesium chloride) and guanosine 5′-triphosphate (GTP) are also obtained from Cytoskeleton. […] [^3H]vinblastine, specific activity 9.60 Ci/mmol and MicroSpin G-50 columns are obtained from Amersham Biosciences (Piscataway, N.J.). […] Other reagents are obtained from Sigma (St. Louis, Mo.).
MAP-rich tubulin is dissolved in ice-cold PEM buffer containing 1 mM GTP (GPEM buffer) at a concentration of 1.3 mg/mL. The solution is centrifuged at top speed in an Eppendorf model 5415C microcentrifuge (Brinkmann Instruments, Westbury, N.Y.) for 10 min at 4° immediately before use. The tubulin solution is added to wells of a ½-area 96-well plate (Costar No. 3696, Corning, Inc., Corning, N.Y.) already containing the compounds of interest. Each compound is tested in duplicate at a final concentration of 0.3 μM in a volume of 110 μL per well. The final DMSO concentration in all wells is 0.3%. Control reactions, which receive compound solvent only, are done in quadruplicate. The plate is put in a SpectraMax Plus plate reader (Molecular Devices Corp. Sunnyvale, Calif.) thermostated at 24° and the absorbance of each well at 340 nm, a measure of the appearance of turbidity due to tubulin polymer formation, is determined every minute for 60 minutes. The absorbance at time 0 for each well is subtracted from each of the subsequent absorbance readings for that well, and then the duplicates are averaged.

[5] = test system: KB-V1 cells; experiment: MTS cytotoxicity test with KB-V1 cells (very high P-glycoprotein); assay type: cell-based, human; settings: for IC50: KB VI cells, mean of 2 experiments; for Ratio VI/KB: IC50 on KB VI cells/IC50 on KB cells
Source text: as §1, §2, §3, §4

[6] = test system: H157 Human Non-Small Cell Lung Carcinoma; settings: for growth of xenografts: H157 NSCLC;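 for all read-outs here: subcutaneous flank tumors in female athymic nu/nu mice, staged near 100 mm^3 on day 0, tumor volume from caliper measurements, vehicle-dosed controls on the same schedule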
Experimental: The ability of compounds of this invention to inhibit tumor growth in animals is studied in the athymic mouse xenograft standard pharmacological test. Female nu/nu mice in an outbred albino background are obtained from Charles River Laboratories (Wilmington, Mass.). Animals are injected subcutaneously on the flank with the desired tumor cell suspension. Several days later, mice with tumors of approximately 100 mm^3 are selected from those injected (staged) and randomly distributed into groups of 5-10. The day of staging is called day 0. Compounds of the invention, formulated in saline, are administered to animals by intravenous injection or oral gavage on various schedules starting on day 0 or 1, as noted in the tables. The control group in each experiment is dosed with vehicle on the same schedule. Tumor size is measured every 3-7 days with calipers in two orthogonal dimensions, and tumor volume is calculated from the formula volume=[(length×width^2)/2].
Tumor/Control (T/C) is obtained by dividing the mean tumor volume of the treated group by the mean tumor volume of the control group on each measurement day. […] A p value≦0.05, determined by one-side Student's t-test, is required for statistical significance. A treatment dose is defined as toxic if more than 30% of the animals die from a compound-related toxicity.

[7] = 1.5 mg/kg IV, schedule days 0, 7, H157
[8] = 3 mg/kg IV, schedule days 0, 7, H157
[9] = 1 mg/kg PO, schedule days 1, 7, H157
[10] = 5 mg/kg PO, schedule days 1, 7, H157
[11] = 5 mg/kg IV, schedule day 0, H157 (Table 11)
[12] = 5 mg/kg PO, schedule day 0, H157

## CC[C@]1(O)C[C@H]2CN(CCc3c([nH]c4ccccc34)[C@@](C(=O)OC)(c3cc4c(cc3OC)N(C=O)[C@H]3[C@@](O)(C(=O)OC)[C@H](OC(C)=O)[C@]5(CC)C=CCN6CC[C@]43[C@@H]65)C2)C1 [Vincristine, reference compound]
[1]; Homo sapiens
  IC50: 14 nM
[2]; Homo sapiens
  IC50: 2.2 nM
[3]; Homo sapiens
  IC50: 2.5 nM
[4]
  A340 Compound / A340 Control: 0.2
[5]; Homo sapiens, KB-V1
  IC50: 2040 nM
[5]
  Ratio VI/KB: 925

## CNCCCOc1cc(F)c(-c2c(Cl)nc(-n3cccn3)nc2N[C@@H](C)C(F)(F)F)c(F)c1.Cl [Example 32a, 6-Chloro-5-{2,6-difluoro-4-[3-(methylamino)propoxy]phenyl}-2-(1H-pyrazol-1-yl)-N-[(1S)-2,2,2-trifluoro-1-methylethyl)pyrimidin-4-amine Hydrogen Chloride]
[6]; [7]
  T/C on day 0: 0.95
  T/C on day 4: 0.89
  T/C on day 7: 0.63*
  T/C on day 13: 0.48*
[6]; [8]
  T/C on day 0: 0.95
  T/C on day 4: 0.72
  T/C on day 7: 0.46**
  T/C on day 13: 0.10**
[6]; intravenously on days 0 and 7 at 3 or 1.5 mg/kg/dose
  growth of xenografts: inhibits the growth
[1]; Homo sapiens
  IC50: 9.9 nM
[2]; Homo sapiens
  IC50: 2.4 nM
[3]; Homo sapiens
  IC50: 2.6 nM
[4]
  A340 Compound / A340 Control: 2.3
[5]; Homo sapiens, KB-V1
  IC50: 569 nM
[5]
  Ratio VI/KB: 242

## CC(=O)O[C@H]1C(=O)[C@@]2(C)[C@H]([C@H](OC(=O)c3ccccc3)[C@]3(O)C[C@H](OC(=O)[C@H](O)[C@@H](NC(=O)c4ccccc4)c4ccccc4)C(C)=C1C3(C)C)[C@]1(OC(C)=O)CO[C@@H]1C[C@@H]2O [Paclitaxel, reference compound]
[1]; Homo sapiens
  IC50: 4.2 nM
[3]; Homo sapiens
  IC50: 3 nM
[4]
  A340 Compound / A340 Control: 2.4
[5]; Homo sapiens, KB-V1
  IC50: 2010 nM

## CNCCCOc1cc(F)c(-c2c(Cl)nc(-c3cnccn3)nc2N[C@@H](C)C(F)(F)F)c(F)c1.Cl [Example 24a, 6-Chloro-5-{2,6-difluoro-4-[3-(methylamino)propoxy]phenyl}-2-pyrazin-2-yl-N-[(1S)-2,2,2-trifluoro-1-methylethyl]pyrimidin-4-amine hygrogen chloride]
[6]; [9]
  T/C on day 0: 0.96
  T/C on day 4: 0.73*
  T/C on day 7: 0.70
  T/C on day 10: 0.58
  T/C on day 13: 0.50*
[6]; [10]
  T/C on day 0: 0.98
  T/C on day 4: 0.64**
  T/C on day 7: 0.51**
  T/C on day 10: 0.16**
  T/C on day 13: 0.12**
[6]; orally on days 1 and 7 with 5 or 1 mg/kg/dose
  growth of xenografts: inhibits the growth
[1]
  IC50: 20 nM
[2]
  IC50: 7 nM
[3]
  IC50: 6.6 nM
[4]
  A340 Compound / A340 Control: 2.3
[5]
  Ratio VI/KB: 58
  IC50: 405 nM

## CNCCCOc1cc(F)c(-c2c(Cl)nc(-c3ccccn3)nc2N[C@@H](C)C(F)(F)F)c(F)c1.Cl [Example 29a, 6-Chloro-5-{2,6-difluoro-4-[3-(methylamino)propoxy]phenyl}-2-pyridin-2-yl-N-[(S)-2,2,2-trifluoro-1-methylethyl]pyrimidin-4-amine hydrogen chloride]
[6]; [11]
  T/C on day 0: 1.03
  T/C on day 2: 0.34**
  T/C on day 7: Toxic
[6]; [12]
  T/C on day 0: 1.02
  T/C on day 2: 0.43**
  T/C on day 7: 0.37**
  T/C on day 9: 0.33**
  T/C on day 14: 0.25**
[6]; orally on day 0 with 5 mg/kg
  growth of xenografts: inhibits the growth
[1]; Homo sapiens
  IC50: 7.9 nM
[2]; Homo sapiens
  IC50: 6.2 nM
[3]; Homo sapiens
  IC50: 6.9 nM
[4]
  A340 Compound / A340 Control: 2.4
[5]; Homo sapiens, KB-V1
  IC50: 423 nM
[5]
  Ratio VI/KB: 69
